Laboratory results from ChEMBL document CHEMBL1144216, “Suppression of cytokine production in lipopolysaccharide-stimulated mouse macrophages by novel cationic glucosamine derivative involves down-regulation of NF-kappaB and MAPK expressions” (2008).
The source made the active and inactive calls. The rule behind the calls is not given here.

Legend:
RAW264.7 [1] = test: Inhibition of LPS-stimulated TNFalpha production in mouse RAW264.7 cells treated 1 hr before LPS challenge after 24 hrs by ELISA; assay type: functional, cell-based
RAW264.7 [2] = test: Inhibition of LPS-stimulated IL1-beta production in mouse RAW264.7 cells treated 1 hr before LPS challenge after 24 hrs by ELISA; assay type: functional, cell-based
RAW264.7 [3] = test: Inhibition of LPS-stimulated PGE2 production in mouse RAW264.7 cells treated 1 hr before LPS challenge after 24 hrs by ELISA; assay type: functional, cell-based
RAW264.7 [4] = test: Inhibition of LPS-stimulated IL6 production in mouse RAW264.7 cells treated 1 hr before LPS challenge after 24 hrs by ELISA; assay type: functional, cell-based
RAW264.7 [5] = test: Inhibition of LPS-stimulated TNFalpha production in mouse RAW264.7 cells at 50 ug/ml treated 1 hr before LPS challenge after 24 hrs by ELISA; assay type: functional
RAW264.7 [6] = test: Inhibition of LPS-stimulated IL1-beta production in mouse RAW264.7 cells assessed as IL1-beta level at 50 ug/ml treated 1 hr before LPS challenge after 24 hrs by ELISA; assay type: functional
RAW264.7 [7] = test: Inhibition of LPS-stimulated IL6 production in mouse RAW264.7 cells at 50 ug/ml treated 1 hr before LPS challenge after 24 hrs by ELISA; assay type: functional, cell-based
RAW264.7 [8] = test: Inhibition of LPS-stimulated PGE2 production in mouse RAW264.7 cells at 50 ug/ml treated 1 hr before LPS challenge after 24 hrs by ELISA; assay type: functional
RAW264.7 [9] = test: Inhibition of LPS-induced NF-kappaB promoter activity in mouse RAW264.7 cells by luciferase reporter assay; assay type: functional, cell-based
RAW264.7 [10] = test: Reduction of LPS-induced NF-kappaB translocation in mouse RAW264.7 cells assessed as NF-kappaB p65 protein expression level at 40 ug/mL by Western blotting; assay type: functional, cell-based
RAW264.7 [11] = test: Effect on level of NIK in mouse RAW264.7 cells by Western blotting; assay type: functional, cell-based
RAW264.7 [12] = test: Inhibition of IKK protein expression in mouse RAW264.7 cells by Western blotting; assay type: functional, cell-based
RAW264.7 [13] = test: Increase in IkappaB protein expression in mouse RAW264.7 cells by Western blotting relative to control; assay type: functional, cell-based
RAW264.7 [14] = test: Inhibition of LPS-stimulated JNK level in mouse RAW264.7 cells by Western blotting; assay type: functional, cell-based
RAW264.7 [15] = test: Inhibition of LPS-stimulated p38MAPK expression in mouse RAW264.7 cells by Western blotting; assay type: functional, cell-based
RAW264.7 [16] = test: Inhibition of LPS-stimulated ERK expression in mouse RAW264.7 cells by Western blotting; assay type: functional, cell-based
RAW264.7 [17] = test: Inhibition of LPS-stimulated TNFalpha production in mouse RAW264.7 cells at 60 ug/mL by Western blot analysis; assay type: functional, cell-based
RAW264.7 [18] = test: Inhibition of LPS-stimulated IL1-beta production in mouse RAW264.7 cells at 60 ug/mL by Western blot analysis; assay type: functional, cell-based
RAW264.7 [19] = test: Inhibition of LPS-stimulated IL6 production in mouse RAW264.7 cells at 60 ug/mL by Western blot analysis; assay type: functional, cell-based
RAW264.7 [20] = test: Reduction of LPS-induced NF-kappaB translocation in mouse RAW264.7 cells assessed as NF-kappaB p65 protein expression level at 60 ug/mL by Western blotting; assay type: functional, cell-based

| SMILES | Activity (RAW264.7 [1]) | Activity (RAW264.7 [2]) | Activity (RAW264.7 [3]) | Activity (RAW264.7 [4]) | inhibition at 50 µg/mL (RAW264.7 [5]) [%] | Activity (RAW264.7 [6]) [pg/mL] | Activity (RAW264.7 [7]) | inhibition at 50 µg/mL (RAW264.7 [8]) [%] | Activity (RAW264.7 [9]) | Activity (RAW264.7 [10]) | Activity (RAW264.7 [11]) | Activity (RAW264.7 [12]) | Activity (RAW264.7 [13]) | Activity (RAW264.7 [14]) | Activity (RAW264.7 [15]) | Activity (RAW264.7 [16]) | Activity (RAW264.7 [17]) | Activity (RAW264.7 [18]) | Activity (RAW264.7 [19]) | Activity (RAW264.7 [20]) |
| --- | --- | --- | --- | --- | --- | --- | --- | --- | --- | --- | --- | --- | --- | --- | --- | --- | --- | --- | --- | --- |
| N[C@H]1C(O)O[C@H](CO)[C@@H](O)[C@@H]1O (stereo not given in full) | Dose-dependent effect | Dose-dependent effect | Dose-dependent effect | Dose-dependent effect | – | – | – | – | – | – | – | – | – | – | – | – | – | – | – | – |
| C[N+](C)(C)CC(O)CN[C@@H]1[C@@H](O)[C@H](O)[C@@H](CO)O[C@H]1O.[Cl-] (stereo not given in full) | – | – | – | – | 45 | 100 | Active | 50 | Dose-dependent effect | Active | inactive | Active | Active | Dose-dependent effect | Dose-dependent effect | inactive | Active | Active | Active | Active |
